From ChEMBL document CHEMBL4828709, “Discovery of 2,4-pyrimidinediamine derivatives as potent dual inhibitors of ALK and HDAC” (Eur J Med Chem, 2021)

How the values were obtained:
NCI-H2228 = assay: cells; assay type: functional, cell-based; settings: Homo sapiens, NCI-H2228, 72 h
MDA-MB-231 = assay: Cell cycle arrest in human MDA-MB-231 cells assessed as accumulation of cells at G2 phase at 4 uM measured after 24 hrs by PI staining based flowcytometry method (reference value: 23.89%); assay type: functional
SH-SY5Y = assay: Cell cycle arrest in human SH-SY5Y cells assessed as accumulation of cells at G2 phase at 2 uM measured after 24 hrs by PI staining based Flowcytometry method (reference value: 13.23%); assay type: functional
[1] = molecular target: T1, Protein deacetylase HDAC6 (Homo sapiens, UniProt Q9UBN7)
T1 sequence (Q9UBN7 whole entry): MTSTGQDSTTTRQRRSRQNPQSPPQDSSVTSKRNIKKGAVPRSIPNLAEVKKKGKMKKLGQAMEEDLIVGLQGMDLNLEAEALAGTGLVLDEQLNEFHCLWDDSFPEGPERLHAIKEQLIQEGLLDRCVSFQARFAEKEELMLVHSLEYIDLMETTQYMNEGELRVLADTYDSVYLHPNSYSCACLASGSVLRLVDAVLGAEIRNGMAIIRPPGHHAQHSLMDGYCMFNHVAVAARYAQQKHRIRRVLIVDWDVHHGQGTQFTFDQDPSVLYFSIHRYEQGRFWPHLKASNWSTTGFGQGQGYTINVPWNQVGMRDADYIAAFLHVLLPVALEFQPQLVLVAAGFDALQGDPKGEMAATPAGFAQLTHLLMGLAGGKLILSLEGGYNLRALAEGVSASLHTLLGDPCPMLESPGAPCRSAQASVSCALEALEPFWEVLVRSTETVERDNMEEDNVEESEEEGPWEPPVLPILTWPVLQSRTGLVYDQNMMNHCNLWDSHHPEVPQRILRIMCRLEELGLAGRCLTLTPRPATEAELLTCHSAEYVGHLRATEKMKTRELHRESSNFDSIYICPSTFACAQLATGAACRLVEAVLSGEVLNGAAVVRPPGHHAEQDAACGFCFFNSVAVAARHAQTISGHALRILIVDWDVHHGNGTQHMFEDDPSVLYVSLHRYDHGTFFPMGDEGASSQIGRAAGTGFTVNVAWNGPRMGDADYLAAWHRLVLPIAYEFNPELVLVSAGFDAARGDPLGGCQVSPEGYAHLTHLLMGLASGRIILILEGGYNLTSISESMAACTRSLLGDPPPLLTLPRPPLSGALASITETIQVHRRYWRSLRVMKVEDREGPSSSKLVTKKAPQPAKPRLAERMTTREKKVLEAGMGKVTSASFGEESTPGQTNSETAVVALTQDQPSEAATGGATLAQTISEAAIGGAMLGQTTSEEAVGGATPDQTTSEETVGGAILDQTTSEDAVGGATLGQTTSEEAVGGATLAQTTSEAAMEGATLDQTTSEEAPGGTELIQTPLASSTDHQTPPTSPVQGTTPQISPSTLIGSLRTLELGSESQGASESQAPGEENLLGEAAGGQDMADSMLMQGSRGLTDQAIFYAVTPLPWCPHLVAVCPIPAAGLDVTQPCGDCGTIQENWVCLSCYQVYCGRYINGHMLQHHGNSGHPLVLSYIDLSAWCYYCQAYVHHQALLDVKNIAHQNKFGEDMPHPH
Description: Inhibition of HDAC6 (unknown origin)

CC(C)S(=O)(=O)c1ccccc1Nc1nc(Nc2ccc(NC(=O)CCCCCCC(=O)NO)cc2)ncc1Cl
IC50 (NCI-H2228): 0.13 µM | Activity (MDA-MB-231): 50.99% | Activity (SH-SY5Y): 75.94% | IC50 [1]: 0.0044 µM
